Source: publication PMC10788917 (Journal of Medicinal Chemistry, 2023)
Like-named read-outs stand apart in the source and are kept apart here.

Experiments:
[1] = molecular target: T1, HDAC8 Cys102Ser/Cys153Ser/Cys28Ser (Homo sapiens, UniProt Q9BY41, C102S/C153S/C28S); experiment: HDAC8 mutant biochemical assay; details: read-out: IC50 [μM] @ 100 nM HDAC8: B Cys102Ser/Cys153Ser/Cys28Ser, 1 h preincubation
T1 construct: made in house
T1 sequence (Q9BY41 1-377 C28S/C102S/C153S): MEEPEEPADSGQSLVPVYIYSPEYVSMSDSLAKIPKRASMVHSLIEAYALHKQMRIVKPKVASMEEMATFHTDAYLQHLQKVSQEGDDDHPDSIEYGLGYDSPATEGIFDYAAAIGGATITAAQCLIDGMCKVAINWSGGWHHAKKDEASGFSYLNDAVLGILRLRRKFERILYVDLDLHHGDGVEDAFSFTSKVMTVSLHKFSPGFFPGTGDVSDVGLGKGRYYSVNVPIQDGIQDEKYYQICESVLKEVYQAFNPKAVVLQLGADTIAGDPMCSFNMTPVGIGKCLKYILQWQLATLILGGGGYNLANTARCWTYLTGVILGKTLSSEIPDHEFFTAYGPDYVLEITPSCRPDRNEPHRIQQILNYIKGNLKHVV
Experimental: HDAC8 mutant variants were generated, produced, and further purified as described previously.[32] Cysteines 28 and 314 were exchanged with serine using the following primer pairs: HD8_C28S_for, […]; HD8_C28S_rev, […]; HD8_C314S_for, […]; HD8_C314S_rev, […].
(§1) The enzyme activity assay was performed in assay buffer [25 mM Tris-HCl (pH 8.0), 50 mM NaCl, and 0.001% (v/v) Pluronic F-68] in black half-area 96-well microplates (Greiner Bio-One). For the initial screening, 10 nM HDAC8 was preincubated with the indicated compounds at 250 μM for 2 h at 30 °C. […] The reaction was initiated by the addition of 20 μM Boc-Lys(TFA)-AMC (Bachem). After substrate conversion at 30 °C for 15 min for HDAC8 and 1 h for HDAC8 mutants and HDAC4, the reaction was stopped by adding 1.67 μM suberoylanilide trifluoromethylketone (SATFMK). The deacetylated substrate was cleaved with 0.42 mg/mL trypsin to release fluorescent 7-amino-4-methylcoumarin (AMC), which was detected with a microplate reader (PHERAstar FS […]) with fluorescence excitation at 360 nm and emission at 460 nm. IC50 values were calculated by generating dose–response curves in GraphPad Prism 6 and fitting those to a four-parameter logistic model.

HL60 cells = experiment: CellTiter-Blue cell viability assay; assay type: cell-based; details: Homo sapiens, HL-60; 72 h, Figure 7A
Experimental: (§2) All cell lines were purchased from DSMZ (Braunschweig, Germany). The cell lines were regularly tested to exclude mycoplasma contamination and authenticated. Cell lines were grown at 37 °C and 5% CO2 in RPMI 1640 medium (Gibco, Thermo Fisher Scientific). Media were supplemented with 10% fetal calf serum (FCS), 10 units/mL penicillin, 10 μg/mL streptomycin, and 2 mM L-glutamine (all Gibco, Thermo Fisher Scientific).
(§3) To determine the IC50 of the selected compounds on the cell lines, the CellTiter-Blue cell viability assay (Promega) was performed. For this, cells were seeded in 96-well flat-bottom plates at a cell density of 10 000 cells/well. Cells were treated in triplicate with the compound of interest at various concentrations or with 10 μM Bortezomib (S1013; Selleck Chemicals, Houston, TX), as a positive control. The cell viability of treated cell lines was measured using CellTiter-Blue after incubation for 72 h. Plates were measured using a GloMax plate reader (Promega), and IC50 values were determined by nonlinear regression using GraphPad Prism version 9.1.1 (GraphPad Software, Inc.), and the data are reported as mean values ± the standard error of the mean.

SMC3 acetylation = experiment: Western blot (immunoblot) in OCI-AML3 cells; assay type: cell-based; details: 72 h treatment
Experimental: Cells (2 ×10^6) were seeded in 2 mL of medium in a six-well plate (Greiner) and treated with the desired concentration of the compounds. […] Protein concentrations were determined by the Bradford protein assay. Thirty micrograms of cell lysates per treatment was fractionated on sodium dodecyl sulfate–polyacrylamide gels and transferred to nitrocellulose membranes (Cytiva).

HDAC4 = HDAC4 (Homo sapiens, UniProt P56524); experiment: HDAC4 biochemical assay; details: preincubation 1 h, 1 nM HDAC4
Chain of HDAC4 (P56524 whole entry, species assumed): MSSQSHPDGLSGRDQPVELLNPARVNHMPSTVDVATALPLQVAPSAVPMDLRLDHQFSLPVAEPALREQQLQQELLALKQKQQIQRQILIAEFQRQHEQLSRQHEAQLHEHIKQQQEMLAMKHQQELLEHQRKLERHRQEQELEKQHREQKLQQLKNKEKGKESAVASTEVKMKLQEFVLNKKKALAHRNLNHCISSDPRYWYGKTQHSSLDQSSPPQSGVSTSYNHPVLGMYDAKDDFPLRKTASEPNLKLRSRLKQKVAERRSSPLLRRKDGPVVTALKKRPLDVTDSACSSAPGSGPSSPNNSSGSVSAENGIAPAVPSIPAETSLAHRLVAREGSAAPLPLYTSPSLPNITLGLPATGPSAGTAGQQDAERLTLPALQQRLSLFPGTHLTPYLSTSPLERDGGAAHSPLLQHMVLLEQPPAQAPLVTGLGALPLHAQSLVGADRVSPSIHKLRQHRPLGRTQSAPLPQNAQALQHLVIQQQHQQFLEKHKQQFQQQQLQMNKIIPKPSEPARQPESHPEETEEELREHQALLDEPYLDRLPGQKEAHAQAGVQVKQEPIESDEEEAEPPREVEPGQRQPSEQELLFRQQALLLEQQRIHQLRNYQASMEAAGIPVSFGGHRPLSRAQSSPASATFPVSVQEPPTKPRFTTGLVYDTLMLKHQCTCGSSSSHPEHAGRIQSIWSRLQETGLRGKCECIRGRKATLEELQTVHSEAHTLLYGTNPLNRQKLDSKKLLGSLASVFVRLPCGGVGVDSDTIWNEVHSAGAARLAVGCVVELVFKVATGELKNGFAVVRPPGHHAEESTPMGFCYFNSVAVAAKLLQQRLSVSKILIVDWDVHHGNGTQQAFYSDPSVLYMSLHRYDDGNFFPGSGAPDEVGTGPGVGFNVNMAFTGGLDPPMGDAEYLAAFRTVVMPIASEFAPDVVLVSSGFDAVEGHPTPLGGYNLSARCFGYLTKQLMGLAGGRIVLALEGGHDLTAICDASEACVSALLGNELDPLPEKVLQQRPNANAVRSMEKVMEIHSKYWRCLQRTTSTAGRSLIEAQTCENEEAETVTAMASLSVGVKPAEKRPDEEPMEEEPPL
Experimental: as §1, with “Bio-One).” for “Bio-One). For the initial screening, 10 nM HDAC8 was preincubated with the indicated compounds at 250 μM for 2 h at 30 °C.”, “After substrate conversion at 30 °C for 15 min for HDAC8 and 1 h for HDAC8 mutants and HDAC4, the reaction was stopped by adding 1.67 μM suberoylanilide trifluoromethylketone (SATFMK).” left out

MV4-11 cells = experiment: CellTiter-Blue cell viability assay; assay type: cell-based; details: Homo sapiens, 72 h, HDAC8-dependent line, Figure 7B
Experimental: as §2, with “Cell lines were grown at 37 °C and 5% CO2 in RPMI 1640 medium (Gibco, Thermo Fisher Scientific).” left out
as §3, with “The cell viability of treated cell lines was measured using CellTiter-Blue after incubation for 72 h.” left out

SET2 cells = experiment: CellTiter-Blue cell viability assay; assay type: cell-based; details: Homo sapiens, SET-2; 72 h, HDAC8-independent line, Figure 7B
Experimental: as §2, with “Cell lines were grown at 37 °C and 5% CO2 in RPMI 1640 medium (Gibco, Thermo Fisher Scientific).” left out
as §3, with “The cell viability of treated cell lines was measured using CellTiter-Blue after incubation for 72 h.” left out

THP-1 cells = experiment: CellTiter-Blue cell viability assay; assay type: cell-based; details: Homo sapiens, 72 h
Experimental: as §2, with “Cell lines were grown at 37 °C and 5% CO2 in RPMI 1640 medium (Gibco, Thermo Fisher Scientific).” left out
as §3, with “The cell viability of treated cell lines was measured using CellTiter-Blue after incubation for 72 h.” left out

OCI-AML3 cells = experiment: CellTiter-Blue cell viability assay; assay type: cell-based; details: Homo sapiens, OCI-AML-3; 72 h, HDAC8-dependent line, Figure 7B
Experimental: as §2, with “Cell lines were grown at 37 °C and 5% CO2 in RPMI 1640 medium (Gibco, Thermo Fisher Scientific).” left out
as §3, with “The cell viability of treated cell lines was measured using CellTiter-Blue after incubation for 72 h.” left out

HEL cells = experiment: CellTiter-Blue cell viability assay; assay type: cell-based; details: Homo sapiens, 72 h, HDAC8-independent line, Figure 7B
Experimental: as §2, with “Cell lines were grown at 37 °C and 5% CO2 in RPMI 1640 medium (Gibco, Thermo Fisher Scientific).” left out
as §3, with “The cell viability of treated cell lines was measured using CellTiter-Blue after incubation for 72 h.” left out

MOLM-13 cells = experiment: CellTiter-Blue cell viability assay; assay type: cell-based; details: Homo sapiens, 72 h, HDAC8-dependent line, Figure 7B
Experimental: as §2, with “Cell lines were grown at 37 °C and 5% CO2 in RPMI 1640 medium (Gibco, Thermo Fisher Scientific).” left out
as §3, with “The cell viability of treated cell lines was measured using CellTiter-Blue after incubation for 72 h.” left out

C[n+]1ccccc1I [A3+]
IC50 [1]: > 130 µM

C[n+]1ccc(I)cc1 [C3+]
IC50 [1]: > 130 µM

C#Cc1cc[n+](C)cc1 [C6+]
IC50 [1]: 67 ± 6 µM

C[n+]1cccnc1Cl [D1+]
IC50 [1]: > 130 µM

C[n+]1cccnc1Br [D2+]
IC50 [1]: > 130 µM

C[n+]1cccnc1I [D3+]
IC50 [1]: 62 ± 3 µM

C#Cc1nccc[n+]1C [D6+]
IC50 [1]: > 130 µM

C[n+]1cncc(Br)c1 [F2+]
IC50 [1]: > 130 µM

C[n+]1cncc(I)c1 [F3+]
IC50 [1]: > 130 µM

C#Cc1c[n+](C)ccn1 [G6+]
IC50 [1]: 106 ± 10 µM

C#Cc1c[n+](C)ccc1NC(=O)CC(=O)N1Cc2ccccc2C1.[I-] [compound 3, 3-Ethynyl-4-[3-(isoindolin-2-yl)-3-oxopropanamido]-1-methylpyridin-1-ium Iodide]
IC50 (HL60 cells): 161 µM | concentration inducing an increased level of SMC3 acetylation (SMC3 acetylation): 10 µM | effect on HDAC8 levels (SMC3 acetylation): not influencing HDAC8 levels | IC50 (HDAC4): 23.1 µM | IC50 (MV4-11 cells): 8.23 ± 0.12 µM | IC50 (SET2 cells): > 200 µM | IC50 (THP-1 cells; Figure 7A, read-out: cell viability IC50, THP-1): 46.5 µM | IC50 (THP-1 cells; HDAC8-independent line, Figure 7B, read-out: THP-1 IC50): 78.1 ± 32.8 µM | IC50 (OCI-AML3 cells): 27.2 ± 5.86 µM | IC50 (HEL cells): > 200 µM | IC50 (MOLM-13 cells): 7.08 ± 1.07 µM
